Experimental data: PubChem BioAssay AID1259407 (Chemical Carcinogenesis Research Information System (CCRIS), 2018)
The source made the active and inactive calls. The rule behind the calls is not given here.

Tested on: CCRIS mutagenicity, Ames/micronucleus/aberration tests
Assay: CCRIS mutagenicity studies
[1] = Test System: AMES SALMONELLA TYPHIMURIUM, Strain/Indicator: TA98, Metabolic Activation: NONE, Method: STANDARD PLATE
[2] = Test System: AMES SALMONELLA TYPHIMURIUM, Strain/Indicator: TA98, Metabolic Activation: RAT, LIVER, S-9, AROCLOR 1254, Method: STANDARD PLATE
[3] = Test System: AMES SALMONELLA TYPHIMURIUM, Strain/Indicator: TA100, Metabolic Activation: HAMSTER, LIVER, S-9, AROCLOR 1254 (10%), Method: PREINCUBATION
[4] = Test System: AMES SALMONELLA TYPHIMURIUM, Strain/Indicator: TA100, Metabolic Activation: NONE, Method: PREINCUBATION
[5] = Test System: AMES SALMONELLA TYPHIMURIUM, Strain/Indicator: TA100, Metabolic Activation: NONE, Method: STANDARD PLATE
[6] = Test System: AMES SALMONELLA TYPHIMURIUM, Strain/Indicator: TA100, Metabolic Activation: RAT, LIVER, S-9, AROCLOR 1254 (10%), Method: PREINCUBATION
[7] = Test System: AMES SALMONELLA TYPHIMURIUM, Strain/Indicator: TA100, Metabolic Activation: RAT, LIVER, S-9, AROCLOR 1254, Method: STANDARD PLATE
[8] = Test System: AMES SALMONELLA TYPHIMURIUM, Strain/Indicator: TA1535, Metabolic Activation: NONE, Method: PREINCUBATION
[9] = Test System: AMES SALMONELLA TYPHIMURIUM, Strain/Indicator: TA1535, Metabolic Activation: NONE, Method: STANDARD PLATE
[10] = Test System: AMES SALMONELLA TYPHIMURIUM, Strain/Indicator: TA1535, Metabolic Activation: RAT, LIVER, S-9, AROCLOR 1254, Method: STANDARD PLATE
[11] = Test System: AMES SALMONELLA TYPHIMURIUM, Strain/Indicator: TA1537, Metabolic Activation: NONE, Method: STANDARD PLATE
[12] = Test System: AMES SALMONELLA TYPHIMURIUM, Strain/Indicator: TA1537, Metabolic Activation: RAT, LIVER, S-9, AROCLOR 1254, Method: STANDARD PLATE
[13] = Test System: AMES SALMONELLA TYPHIMURIUM, Strain/Indicator: TA1538, Metabolic Activation: NONE, Method: STANDARD PLATE
[14] = Test System: AMES SALMONELLA TYPHIMURIUM, Strain/Indicator: TA1538, Metabolic Activation: RAT, LIVER, S-9, AROCLOR 1254, Method: STANDARD PLATE

O=C(O)CNCP(=O)(O)O was tested, and the mutagenic call (End Point: IN VITRO MICRONUCLEUS, Test System: BOVINE LYMPHOCYTES, Metabolic Activation: NONE) was “inactive; negative”, the mutagenic call (End Point: IN VIVO CHROMOSOMAL ABERRATIONS, Test System: BONE MARROW ERYTHROCYTES, Species: RABBIT, Strain/Sex: NEW ZEALAND/MALE, Route: DRINKING WATER) was “active; positive (structural changes and ploidy)” and the mutagenic call (End Point: IN VIVO MICRONUCLEUS, Test System: BONE MARROW POLYCHROMATIC ERYTHROCYTES, Species: MOUSE, Strain/Sex: SWISS/MALE, FEMALE, Route: IP 2X IN AQUEOUS SUSPENSION WITHIN 24 HR) was “inactive; negative”. For the same molecule, the mutagenic call (End Point: In vitro chromosomal aberrations, Test System: Bovine peripheral lymphocytes, Metabolic Activation: None) was “inactive; negative”, the mutagenic call (End Point: In vivo micronucleus, Test System: Bone marrow erythrocytes, Species: Mouse, Strain/Sex: Balb C/Male, female, Route: Intraperitoneal injection) was “active; positive (highest dose only)” and the mutagenic call (Test System: AMES SALMONELLA TYPHIMURIUM, Strain/Indicator: TA97, Metabolic Activation: HAMSTER, LIVER, S-9, AROCLOR 1254 (10%), Method: PREINCUBATION) was “inactive; negative”. For the same molecule, the mutagenic call (Test System: AMES SALMONELLA TYPHIMURIUM, Strain/Indicator: TA97, Metabolic Activation: HAMSTER, LIVER, S-9, AROCLOR 1254 (30%), Method: PREINCUBATION) was “inactive; negative”, the mutagenic call (Test System: AMES SALMONELLA TYPHIMURIUM, Strain/Indicator: TA97, Metabolic Activation: NONE, Method: PREINCUBATION) was “inactive; negative” and the mutagenic call (Test System: AMES SALMONELLA TYPHIMURIUM, Strain/Indicator: TA97, Metabolic Activation: RAT, LIVER, S-9, AROCLOR 1254 (10%), Method: PREINCUBATION) was “inactive; negative”. For the same molecule, the mutagenic call (Test System: AMES SALMONELLA TYPHIMURIUM, Strain/Indicator: TA97, Metabolic Activation: RAT, LIVER, S-9, AROCLOR 1254 (30%), Method: PREINCUBATION) was “inactive; negative”, the mutagenic call (Test System: AMES SALMONELLA TYPHIMURIUM, Strain/Indicator: TA98, Metabolic Activation: HAMSTER, LIVER, S-9, AROCLOR 1254 (10%), Method: PREINCUBATION) was “inactive; negative” and the mutagenic call (Test System: AMES SALMONELLA TYPHIMURIUM, Strain/Indicator: TA98, Metabolic Activation: HAMSTER, LIVER, S-9, AROCLOR 1254 (30%), Method: PREINCUBATION) was “inactive; negative”. For the same molecule, the mutagenic call (Test System: AMES SALMONELLA TYPHIMURIUM, Strain/Indicator: TA98, Metabolic Activation: NONE, Method: PREINCUBATION) was “inactive; negative”, the mutagenic call [1] was “inactive; negative” and the mutagenic call (Test System: AMES SALMONELLA TYPHIMURIUM, Strain/Indicator: TA98, Metabolic Activation: RAT, LIVER, S-9, AROCLOR 1254 (10%), Method: PREINCUBATION) was “inactive; negative”. The mutagenic call (Test System: AMES SALMONELLA TYPHIMURIUM, Strain/Indicator: TA98, Metabolic Activation: RAT, LIVER, S-9, AROCLOR 1254 (30%), Method: PREINCUBATION) was “inactive; negative”, the mutagenic call [2] was “inactive; negative” and the mutagenic call (Test System: AMES SALMONELLA TYPHIMURIUM, Strain/Indicator: TA98, Metabolic Activation: S-9, AROCLOR 1254, Method: STANDARD PLATE) was “inactive; negative”. The mutagenic call [3] was “inactive; negative”, the mutagenic call (Test System: AMES SALMONELLA TYPHIMURIUM, Strain/Indicator: TA100, Metabolic Activation: HAMSTER, LIVER, S-9, AROCLOR 1254 (30%), Method: PREINCUBATION) was “inactive; negative” and the mutagenic call [4] was “inactive; negative”. For the same molecule, the mutagenic call [5] was “inactive; negative”, the mutagenic call [6] was “inactive; negative” and the mutagenic call (Test System: AMES SALMONELLA TYPHIMURIUM, Strain/Indicator: TA100, Metabolic Activation: RAT, LIVER, S-9, AROCLOR 1254 (30%), Method: PREINCUBATION) was “inactive; negative”. For the same molecule, the mutagenic call [7] was “inactive; negative”, the mutagenic call (Test System: AMES SALMONELLA TYPHIMURIUM, Strain/Indicator: TA100, Metabolic Activation: S-9, AROCLOR 1254, Method: STANDARD PLATE) was “active; positive” and the mutagenic call (Test System: AMES SALMONELLA TYPHIMURIUM, Strain/Indicator: TA1535, Metabolic Activation: HAMSTER, LIVER, S-9, AROCLOR 1254 (10 OR 30%), Method: PREINCUBATION) was “inactive; negative”. For the same molecule, the mutagenic call [8] was “inactive; negative”, the mutagenic call [9] was “inactive; negative” and the mutagenic call (Test System: AMES SALMONELLA TYPHIMURIUM, Strain/Indicator: TA1535, Metabolic Activation: RAT, LIVER, S-9, AROCLOR 1254 (10 OR 30%), Method: PREINCUBATION) was “inactive; negative”. The mutagenic call [10] was “inactive; negative”, the mutagenic call [11] was “inactive; negative” and the mutagenic call [12] was “inactive; negative”. For the same molecule, the mutagenic call [13] was “inactive; negative”, the mutagenic call [14] was “inactive; negative” and the mutagenic call (Test System: CHO/HGPRT, Strain/Indicator: CHO-K1-BH4, Metabolic Activation: NONE, Method: PREINCUBATION) was “inactive; negative”. The mutagenic call (Test System: CHO/HGPRT, Strain/Indicator: CHO-K1-BH4, Metabolic Activation: RAT, LIVER, S-9, AROCLOR 1254, Method: PREINCUBATION) was “inactive; negative”, the mutagenic call (Test System: E. COLI, Strain/Indicator: WP2, Metabolic Activation: NONE, Method: STANDARD PLATE) was “inactive; negative” and the mutagenic call (Test System: E. COLI, Strain/Indicator: WP2, Metabolic Activation: RAT, LIVER, S-9, AROCLOR 1254, Method: STANDARD PLATE) was “inactive; negative”.
For NC(=O)c1nnn(Cc2cc(Cl)c(C(=O)c3ccc(Cl)cc3)c(Cl)c2)c1N, the mutagenic call (Test System: Mouse lymphoma, Strain/Indicator: L5178Y (tk+/tk-), Metabolic Activation: None, Method: Suspension/plate) was “inactive; inconclusive (previous evaluation negative)” and the mutagenic call (Test System: Mouse lymphoma, Strain/Indicator: L5178Y (tk+/tk-), Metabolic Activation: Rat, Liver, S-9, Aroclor 1254, Method: Suspension/plate) was “inactive; negative”.
COc1ccc(CNCC(O)COc2ccc3[nH]c(=O)ccc3c2)cc1OC (stereo not given) was tested, and the mutagenic call [1] was “inactive; negative”, the mutagenic call [2] was “inactive; negative” and the mutagenic call [5] was “inactive; negative”. The mutagenic call [7] was “inactive; negative”, the mutagenic call [9] was “inactive; negative” and the mutagenic call [10] was “inactive; negative”. For the same molecule, the mutagenic call [11] was “inactive; negative”, the mutagenic call [12] was “inactive; negative” and the mutagenic call [13] was “inactive; negative”. The mutagenic call [14] was “inactive; negative”, the mutagenic call (Test System: E. COLI, Strain/Indicator: WP2 UVRA, Metabolic Activation: NONE, Method: STANDARD PLATE) was “inactive; negative” and the mutagenic call (Test System: E. COLI, Strain/Indicator: WP2 UVRA, Metabolic Activation: RAT, LIVER, S-9, AROCLOR 1254, Method: STANDARD PLATE) was “inactive; negative”. The mutagenic call (Test System: MOUSE LYMPHOMA, Strain/Indicator: L5178Y (TK+/TK-), Metabolic Activation: NONE, Method: SUSPENSION/PLATE) was “active; positive”.
For C=CC(=O)OCC1CO1 (stereo not given), the mutagenic call [3] was “active; positive”, the mutagenic call [4] was “active; positive” and the mutagenic call [6] was “active; positive”. The mutagenic call (Test System: AMES SALMONELLA TYPHIMURIUM, Strain/Indicator: TA1535, Metabolic Activation: HAMSTER, LIVER, S-9, AROCLOR 1254 (10%), Method: PREINCUBATION) was “active; positive”, the mutagenic call [8] was “active; positive” and the mutagenic call (Test System: AMES SALMONELLA TYPHIMURIUM, Strain/Indicator: TA1535, Metabolic Activation: RAT, LIVER, S-9, AROCLOR 1254 (10%), Method: PREINCUBATION) was “active; positive”.
